# What was measured:
# [1] = Solubility of compound; type: physicochemical
# Mus musculus [2] = experiment: Cmax in CD1 mouse at 2 mg/kg, iv measured at 5 mins by LC-MS/MS method; type: ADME, organism-based; design: dose 2 mg/kg, route intravenous; details: in vivo
# Mus musculus [3] = experiment: Cmax in CD1 mouse at 10 mg/kg, po measured at 5 mins by LC-MS/MS method; type: ADME, organism-based; design: dose 10 mg/kg, route oral; details: in vivo
# Rattus norvegicus [4] = experiment: Cmax in Sprague-Dawley rat at 2 mg/kg, iv measured at 5 mins by LC-MS/MS method; type: ADME, organism-based; design: dose 2 mg/kg, route intravenous; details: in vivo
# Rattus norvegicus [5] = experiment: Cmax in Sprague-Dawley rat at 10 mg/kg, po measured at 5 mins by LC-MS/MS method; type: ADME, organism-based; design: dose 10 mg/kg, route oral; details: in vivo
# [6] = AUC (0 to infinity) in Sprague-Dawley rat at 2 mg/kg, iv by LC-MS/MS method; type: ADME, organism-based; design: dose 2 mg/kg, time infinity, route intravenous; details: in vivo
# [7] = AUC (0 to infinity) in Sprague-Dawley rat at 10 mg/kg, po by LC-MS/MS method; type: ADME, organism-based; design: dose 10 mg/kg, route oral, time infinity; details: in vivo
# [8] = Volume of distribution at steady state in Sprague-Dawley rat at 2 mg/kg, iv by LC-MS/MS method; type: ADME, organism-based; details: in vivo, read-out: Vdss
# Mus musculus [9] = experiment: Oral bioavailability in CD1 mouse at 10 mg/kg by LC-MS/MS method; type: ADME, organism-based; details: in vivo
# Rattus norvegicus [10] = experiment: Oral bioavailability in Sprague-Dawley rat at 10 mg/kg by LC-MS/MS method; type: ADME, organism-based; details: in vivo
# [11] = Permeability of the compound by PAMPA; type: ADME
# [12] = Apparent permeability across apical to basolateral side in human Caco2 cells; type: ADME, cell-based; details: caco-2
# [13] = Apparent permeability across basolateral to apical side in human Caco2 cells; type: ADME, cell-based; details: caco-2
SMILES,solubility [1] [µg/mL],Cmax (Mus musculus [2]) [ng/mL],Cmax (Mus musculus [3]) [ng/mL],Cmax (Rattus norvegicus [4]) [ng/mL],Cmax (Rattus norvegicus [5]) [ng/mL],AUC(0-inf) [6] [ng·h/mL],AUC(0-inf) [7] [ng·h/mL],Vd [8] [L/kg],F (Mus musculus [9]) [%],F (Rattus norvegicus [10]) [%],permeability [11] [×10⁻⁶ cm/s],Papp [12] [×10⁻⁶ cm/s],Papp [13] [×10⁻⁶ cm/s]
COc1ccc(S(=O)(=O)c2cnc3ccc(OC)cc3c2N2CCC3(CC2)OCCO3)cc1,< 1,,,,,,,,,,,,
CS(=O)(=O)N1CCN(C(=O)c2cnc3ccc(F)cc3c2-c2ccc(C3(C#N)CC3)cc2)CC1,,1997,1530,2587,1980,3160,7540,0.7,76,48,388,5.76,22.4
CS(=O)(=O)N1CCN(C(=O)c2cnc3ccc(F)cc3c2N2CCC(C#N)(c3ccccc3)CC2)CC1,,2350,1234,,,,,,44,,725,11.4,17.2

# Source: ChEMBL document CHEMBL4184337, “Discovery of Orally Bioavailable, Quinoline-Based Aldehyde Dehydrogenase 1A1 (ALDH1A1) Inhibitors with Potent Cellular Activity” (J Med Chem, 2018)
